Tests used:
SR = assay: Cytotoxicity against human SR cells incubated for 48 hrs by sulforhodamine B assay; format: functional
MOLT-4 = assay: Cytotoxicity against human MOLT4 cells incubated for 48 hrs by sulforhodamine B assay; format: functional; conditions: MOLT-4, 48 h
Malme-3M = assay: Cytotoxicity against human MALME-3M cells incubated for 48 hrs by sulforhodamine B assay; format: functional
SF-295 = assay: Cytotoxicity against human SF295 cells incubated for 48 hrs by sulforhodamine B assay; format: functional; conditions: SF-295, 48 h
786-0 = assay: Cytotoxicity against human 786-0 cells incubated for 48 hrs by sulforhodamine B assay; format: functional; conditions: 786-0, 48 h
NCI-H23 = assay: Cytotoxicity against human NCI-H23 cells incubated for 48 hrs by sulforhodamine B assay; format: functional; conditions: NCI-H23, 48 h
U-251 = assay: Cytotoxicity against human U251 cells incubated for 48 hrs by sulforhodamine B assay; format: functional; conditions: U-251, 48 h
A549 [1] = assay: Cell cycle arrest in human A549 cells assessed as accumulation at S phase at 1.4 uM after 24 hrs by propidium iodide staining based flow cytometry (reference value: 27.9%); format: functional
HOP-62 = assay: Cytotoxicity against human HOP62 cells incubated for 48 hrs by sulforhodamine B assay; format: functional; conditions: HOP-62, 48 h
A549 [2] = assay: Cell cycle arrest in human A549 cells assessed as accumulation at G2 phase at 1.4 uM after 24 hrs by propidium iodide staining based flow cytometry (reference value: 4.19%); format: functional
[3] = biological target: Serine/threonine-protein kinase B-raf (Mus musculus, UniProt P28028, V600E); assay: Inhibition of mouse full length GST-tagged BRAF V600E mutant using recombinant human His6-tagged MEK1 as substrate preincubated for 1 hr followed by substrate addition measured after 25 mins by ELISA
COLO 205 = assay: Cytotoxicity against human COLO205 cells incubated for 48 hrs by sulforhodamine B assay; format: functional; conditions: COLO 205, 48 h
K562 = assay: Cytotoxicity against human K562 cells incubated for 48 hrs by sulforhodamine B assay; format: functional; conditions: K562, 48 h
EKVX = assay: Cytotoxicity against human EKVX cells incubated for 48 hrs by sulforhodamine B assay; format: functional
NCI/ADR-RES = assay: Cytotoxicity against human NCI/ADR-RES cells incubated for 48 hrs by sulforhodamine B assay; format: functional
SN12C = assay: Cytotoxicity against human SN12C cells incubated for 48 hrs by sulforhodamine B assay; format: functional
UACC-62 = assay: Cytotoxicity against human UACC62 cells incubated for 48 hrs by sulforhodamine B assay; format: functional; conditions: UACC-62, 48 h
HCT-15 = assay: Cytotoxicity against human HCT15 cells incubated for 48 hrs by sulforhodamine B assay; format: functional; conditions: HCT-15, 48 h
RXF 393 = assay: Cytotoxicity against human RXF393 cells incubated for 48 hrs by sulforhodamine B assay; format: functional; conditions: RXF 393, 48 h
MDA-MB-435 = assay: Cytotoxicity against human MDA-MB-435 cells incubated for 48 hrs by sulforhodamine B assay; format: functional; conditions: MDA-MB-435, 48 h
OVCAR-5 = assay: Cytotoxicity against human OVCAR5 cells incubated for 48 hrs by sulforhodamine B assay; format: functional; conditions: OVCAR-5, 48 h
DU-145 = assay: Cytotoxicity against human DU145 cells incubated for 48 hrs by sulforhodamine B assay; format: functional; conditions: DU-145, 48 h
MDA-MB-231 = assay: Cytotoxicity against human MDA-MB-231 cells incubated for 48 hrs by sulforhodamine B assay; format: functional; conditions: MDA-MB-231, 48 h
A549 [4] = assay: Induction of apoptosis in human A549 cells assessed as late apoptotic cells at 1.4 uM after 24 hrs by Annexin V/propidium iodide staining based flow cytometric analysis (reference value: 0.08%); format: functional
HCT-116 = assay: Cytotoxicity against human HCT116 cells incubated for 48 hrs by sulforhodamine B assay; format: functional; conditions: HCT-116, 48 h
OVCAR-8 = assay: Cytotoxicity against human OVCAR8 cells incubated for 48 hrs by sulforhodamine B assay; format: functional; conditions: OVCAR-8, 48 h
PC-3 = assay: Cytotoxicity against human PC3 cells incubated for 48 hrs by sulforhodamine B assay; format: functional; conditions: PC-3, 48 h
A549 [5] = assay: Cell cycle arrest in human A549 cells assessed as accumulation at G1 phase at 1.4 uM after 24 hrs by propidium iodide staining based flow cytometry (reference value: 67.52%); format: functional
CCRF-CEM = assay: Cytotoxicity against human CCRF-CEM cells incubated for 48 hrs by sulforhodamine B assay; format: functional
[6] = read-out: LC50 (the source's name)

Chain of Serine/threonine-protein kinase B-raf (P28028 whole entry, looked up, stated change not applied): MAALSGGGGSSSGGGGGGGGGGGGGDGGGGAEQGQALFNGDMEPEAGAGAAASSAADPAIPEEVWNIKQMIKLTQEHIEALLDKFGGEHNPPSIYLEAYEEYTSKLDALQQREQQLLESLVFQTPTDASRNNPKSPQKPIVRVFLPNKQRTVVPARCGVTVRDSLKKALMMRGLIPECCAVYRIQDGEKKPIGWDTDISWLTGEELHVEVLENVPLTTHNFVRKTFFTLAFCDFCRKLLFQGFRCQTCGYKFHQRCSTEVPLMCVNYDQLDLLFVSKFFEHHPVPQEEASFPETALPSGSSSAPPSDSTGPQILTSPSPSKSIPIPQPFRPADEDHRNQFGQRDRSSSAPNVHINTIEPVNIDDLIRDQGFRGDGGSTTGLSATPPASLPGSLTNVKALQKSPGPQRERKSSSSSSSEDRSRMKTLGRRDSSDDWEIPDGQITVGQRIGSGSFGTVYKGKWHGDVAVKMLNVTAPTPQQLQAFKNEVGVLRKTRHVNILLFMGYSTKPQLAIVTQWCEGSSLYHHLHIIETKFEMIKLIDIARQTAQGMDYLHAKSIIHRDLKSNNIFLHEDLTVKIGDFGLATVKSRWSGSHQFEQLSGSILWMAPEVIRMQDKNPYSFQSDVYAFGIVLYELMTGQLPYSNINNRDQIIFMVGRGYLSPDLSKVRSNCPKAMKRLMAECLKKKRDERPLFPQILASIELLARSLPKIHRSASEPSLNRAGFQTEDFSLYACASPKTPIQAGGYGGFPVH

SMILES: COc1ccc(-c2nc3sc(-c4ccc(Cl)cc4)cn3n2)cc1
- GI50 (SR): 4.53 µM
- TGI (SR): 26.1 µM
- CC50 (SR; [6]): > 50 µM
- GI50 (MOLT-4): 11.3 µM
- TGI (MOLT-4): > 50 µM
- CC50 (MOLT-4; [6]): > 50 µM
- GI50 (Malme-3M): 2.71 µM
- TGI (Malme-3M): > 50 µM
- CC50 (Malme-3M; [6]): > 50 µM
- GI50 (SF-295): 2.81 µM
- TGI (SF-295): 31.8 µM
- CC50 (SF-295; [6]): > 50 µM
- GI50 (786-0): 1.06 µM
- TGI (786-0): 2.41 µM
- CC50 (786-0; [6]): 6.7 µM
- GI50 (NCI-H23): 6.66 µM
- TGI (NCI-H23): > 50 µM
- CC50 (NCI-H23; [6]): > 50 µM
- GI50 (U-251): 1.03 µM
- TGI (U-251): 2.29 µM
- CC50 (U-251; [6]): 5.53 µM
- Activity (A549 [1]): 17.34%
- GI50 (HOP-62): 2.36 µM
- TGI (HOP-62): > 50 µM
- CC50 (HOP-62; [6]): > 50 µM
- Activity (A549 [2]): 14.36%
- IC50 [3]: 4.7 µM
- GI50 (COLO 205): 2.56 µM
- TGI (COLO 205): > 50 µM
- CC50 (COLO 205; [6]): > 50 µM
- GI50 (K562): 29.4 µM
- TGI (K562): > 50 µM
- CC50 (K562; [6]): > 50 µM
- GI50 (EKVX): 4.82 µM
- TGI (EKVX): > 50 µM
- CC50 (EKVX; [6]): > 50 µM
- GI50 (NCI/ADR-RES): 3.75 µM
- TGI (NCI/ADR-RES): > 50 µM
- CC50 (NCI/ADR-RES; [6]): > 50 µM
- GI50 (SN12C): 1.84 µM
- TGI (SN12C): > 50 µM
- CC50 (SN12C; [6]): > 50 µM
- GI50 (UACC-62): 8.24 µM
- TGI (UACC-62): > 50 µM
- CC50 (UACC-62; [6]): > 50 µM
- GI50 (HCT-15): 24.5 µM
- TGI (HCT-15): > 50 µM
- CC50 (HCT-15; [6]): > 50 µM
- GI50 (RXF 393): 5.99 µM
- TGI (RXF 393): 39.7 µM
- CC50 (RXF 393; [6]): > 50 µM
- GI50 (MDA-MB-435): > 50 µM
- TGI (MDA-MB-435): > 50 µM
- CC50 (MDA-MB-435; [6]): > 50 µM
- GI50 (OVCAR-5): 2.78 µM
- TGI (OVCAR-5): > 50 µM
- CC50 (OVCAR-5; [6]): > 50 µM
- GI50 (DU-145): > 50 µM
- TGI (DU-145): > 50 µM
- CC50 (DU-145; [6]): > 50 µM
- GI50 (MDA-MB-231): 2.06 µM
- TGI (MDA-MB-231): 16.7 µM
- CC50 (MDA-MB-231; [6]): > 50 µM
- Activity (A549 [4]): 4.62%
- GI50 (HCT-116): 1.21 µM
- TGI (HCT-116): 3.48 µM
- CC50 (HCT-116; [6]): > 50 µM
- GI50 (OVCAR-8): 2.6 µM
- TGI (OVCAR-8): > 50 µM
- CC50 (OVCAR-8; [6]): > 50 µM
- GI50 (PC-3): > 50 µM
- TGI (PC-3): > 50 µM
- CC50 (PC-3; [6]): > 50 µM
- Activity (A549 [5]): 58.11%
- GI50 (CCRF-CEM): > 50 µM
- TGI (CCRF-CEM): > 50 µM
- CC50 (CCRF-CEM; [6]): > 50 µM

— ChEMBL document CHEMBL4270577, “Synthesis, anticancer activity and molecular modeling studies of 1,2,4-triazole derivatives as EGFR inhibitors” (Eur J Med Chem, 2018)
